From PMC11418212, “Characterization of four structurally diverse inhibitors of SUR2-containing KATP channels” (Channels, 2024)
Where “and” joins values, the source holds several entries; their conditions need not be identical. Equal entries are not always repeated. Entries after “also recorded” stand apart in the source; their conditions may differ. Where two headings read alike, the source gives them in different places.

Key:
Kir6.1/SUR2B [1] = target: T1, Kir6.1/SUR2B (Homo sapiens, UniProt O60706); assay: Quantitative thallium flux assay, inhibition, stably transfected T-REx-HEK293 cells; assay type: cell-based
T1 construct: expressed in transfected cells; Kir6.1 tetracycline-inducible, SUR2B constitutive

Kir6.1/SUR2B [2] = target: T1, Kir6.1/SUR2B; assay: Thallium flux activation dose-response without channel pre-activation; assay type: cell-based; details: no channel pre-activation; doses up to 30 µM
Protocol: (§1) Thallium flux assays were conducted using the established methods. Stably transfected T-REx-HEK-293 cells expressing Kir6.2/SUR1 or Kir6.1/SUR2B were cultured overnight in polyamine-coated plates (black-walled, clear-bottomed; BD, Bedford, MA) at a density of 20,000 cells in 20 µl per well of cell culture media. The expression of Kir6.2/SUR1 or Kir6.1/SUR2B channels was induced by treating cells with 1 µg/ml tetracycline overnight. The following day, cells were rinsed with an assay buffer (Hanks’ Balanced Salt Solution supplied with 20 mM HEPES), loaded with the thallium-sensor dye Brilliant Thallos-AM AM (Ion Bioscience, San Marcos, TX) for 1 h, and then washed again with assay buffer to remove unincorporated dye. The cell plate was subsequently placed in a Panoptic Kinetic Imaging Plate Reader (Wavefront Bioscience, Franklin, TN) and imaged at a frequency of 1 Hz using 482/35 nm (excitation) and 536/40 nm (emission) filter sets. Kir6.1/SUR2B channels were activated with 10 µM pinacidil, whereas Kir6.1/SUR1 was activated with 30 µM VU0071063 [34]. To activate KATP channels independent of activators with ATP-depletion method, cells were treated with a cocktail of metabolic inhibitors (2.5 mM sodium cyanide and 20 mM 2-deoxy glucose) for 25 min before imagine. Control and test compounds diluted freshly from DMSO stocks into assay buffer were added to wells for four minutes before adding 0.5 mM chloride-free thallium stimulus buffer (Ion Bioscience) to initiate thallium flux through the expressed KATP channels. Thallium flux was recorded from all 384-wells for 2 min before terminating the experiment. […] Selectivity assays against other Kir channels were performed as described previously.
(§2) We therefore systematically explored this possibility in dose–response experiments against Kir6.2/SUR1 in the absence of channel pre-activation. Kir6.1/SUR2B was also evaluated for comparison.
(§3) Figure 6. Paradoxical activation of Kir6.2/SUR1. […] Fluorescence intensity at each dose was normalized to that in the absence of drug. […] (b) Activities of indicated compounds at 30 μM toward Kir6.1/SUR2B normalized to that of 30 μM pinacidil. […] (d) Activities of indicated compounds at 30 μM toward Kir6.2/SUR1 normalized to that of 30 μM VU0071063.

Kir6.2/SUR1 [3] = target: T2, Kir6.2/SUR1 (Homo sapiens, UniProt Q09428); assay: Quantitative thallium flux assay, inhibition, stably transfected T-REx-HEK293 cells; assay type: cell-based
Protocol: Briefly, T-Rex-HEK293 cells underwent co-transfection with pcDNA5/TO-Kir6.1 or pcDNA5/TO-Kir6.2 (inducible expression) and pcDNA3.1-SUR2B or pcDNA3.1-SUR1 (constitutive expression) using Lipofectamine LTX following the manufacturer’s instructions and were then subjected to selection with antibiotics. Monoclonal cell lines were established through limiting dilution and characterization in thallium flux assays described below. […] KATP channel selectivity assays were performed in HEK293 cells transiently transfected with the indicated subunit using Lipofectamine LTX. The cells were incubated for 48 h after transfection before performing thallium flux assays.
as §1, with “The cell plate was subsequently placed in a Panoptic Kinetic Imaging Plate Reader (Wavefront Bioscience, Franklin, TN) and imaged at a frequency of 1 Hz using 482/35 nm (excitation) and 536/40 nm (emission) filter sets. Kir6.1/SUR2B channels were activated with 10 µM pinacidil, whereas Kir6.1/SUR1 was activated with 30 µM VU0071063 [34].” left out
The kinetic fluorescence measurements (F) from each well were normalized to the initial reading (F0), producing static ratios (F/F0) that adjust for variations in cell count and dye uptake. […] The response (maxmin2) was determined by subtracting the min value from the max value. Percent inhibition was calculated by normalizing each well’s response to the positive and negative controls. Concentration–response curves were fitted using a single-site, four-parameter logistic function in Prism version 4.0 (GraphPad Software Inc., San Diego, CA) to calculate the half-maximal inhibitory concentration (IC50). Statistical comparisons of IC50 values were performed using an extra sum-of-squares F test and the Mann–Whitney test. A p-value of less than 0.05 was considered statistically significant.

Kir6.1/SUR2B [4] = target: T1, Kir6.1/SUR2B; set-up: method as in PMID 38302135; details: previously reported; cited from earlier work
[5] = tested on: isolated mouse ductus arteriosus vessels; set-up: method as in PMID 38302135; details: compared with glibenclamide; cited from earlier work
Kir6.2/SUR1 [6] = target: T2, Kir6.2/SUR1; set-up: method as in PMID 38302135; details: previously reported; cited from earlier work
Kir6.2/SUR1 [7] = target: T2, Kir6.2/SUR1; assay: Thallium flux activation dose-response without channel pre-activation; assay type: cell-based; details: no channel pre-activation; doses up to 30 µM
Protocol: as §1, §2, §3

Kir4.2 = target: T3, Kir4.2 (Homo sapiens, UniProt Q99712); set-up: method as in PMID 29895592; details: cited from earlier work
T3 construct: expressed in transfected cells
T3 sequence (Q99712 1-375): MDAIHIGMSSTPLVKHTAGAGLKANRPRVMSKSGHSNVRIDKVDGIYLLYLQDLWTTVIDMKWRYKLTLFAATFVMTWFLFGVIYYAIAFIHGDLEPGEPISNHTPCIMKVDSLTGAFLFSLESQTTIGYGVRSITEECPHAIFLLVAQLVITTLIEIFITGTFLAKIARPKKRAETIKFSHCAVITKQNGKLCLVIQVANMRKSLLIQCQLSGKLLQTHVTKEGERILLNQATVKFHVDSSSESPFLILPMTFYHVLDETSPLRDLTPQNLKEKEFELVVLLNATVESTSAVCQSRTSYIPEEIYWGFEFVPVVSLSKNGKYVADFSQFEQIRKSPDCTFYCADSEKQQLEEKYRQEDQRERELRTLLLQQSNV

Kir3.1/3.2 = target: T4, Kir3.1/3.2 (Homo sapiens, UniProt P48051+P48549); set-up: method as in PMID 29895592; details: cited from earlier work
T4 construct: expressed in transfected cells
T4 sequence (P48549 1-501): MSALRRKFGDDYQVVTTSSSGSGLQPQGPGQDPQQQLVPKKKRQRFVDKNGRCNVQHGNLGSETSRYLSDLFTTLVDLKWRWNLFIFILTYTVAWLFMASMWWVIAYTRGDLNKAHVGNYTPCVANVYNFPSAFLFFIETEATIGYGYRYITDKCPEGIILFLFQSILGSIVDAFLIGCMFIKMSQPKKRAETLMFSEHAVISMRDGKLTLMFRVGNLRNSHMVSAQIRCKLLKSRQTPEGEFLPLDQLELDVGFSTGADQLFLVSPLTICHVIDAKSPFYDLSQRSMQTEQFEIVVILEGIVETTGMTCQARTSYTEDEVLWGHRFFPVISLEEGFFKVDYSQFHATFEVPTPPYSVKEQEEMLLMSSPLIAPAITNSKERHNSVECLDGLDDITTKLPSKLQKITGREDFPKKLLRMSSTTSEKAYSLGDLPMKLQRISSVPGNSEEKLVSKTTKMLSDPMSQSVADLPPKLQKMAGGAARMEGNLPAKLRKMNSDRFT
T4 sequence (P48051 1-423): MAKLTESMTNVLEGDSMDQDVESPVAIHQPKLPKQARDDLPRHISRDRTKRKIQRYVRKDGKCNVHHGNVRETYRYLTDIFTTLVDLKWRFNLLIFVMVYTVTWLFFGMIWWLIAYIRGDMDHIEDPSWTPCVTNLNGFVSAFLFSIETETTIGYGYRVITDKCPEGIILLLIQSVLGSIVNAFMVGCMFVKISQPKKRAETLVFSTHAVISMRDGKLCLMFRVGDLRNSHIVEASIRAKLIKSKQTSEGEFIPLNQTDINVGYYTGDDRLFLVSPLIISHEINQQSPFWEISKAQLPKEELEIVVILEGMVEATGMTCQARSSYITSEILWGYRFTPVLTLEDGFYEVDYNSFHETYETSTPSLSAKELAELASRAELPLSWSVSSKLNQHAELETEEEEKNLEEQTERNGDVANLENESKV

Kir4.1 = target: T5, Kir4.1 (Homo sapiens, UniProt P78508); set-up: method as in PMID 29895592; details: cited from earlier work
T5 construct: expressed in transfected cells
T5 sequence (P78508 1-379): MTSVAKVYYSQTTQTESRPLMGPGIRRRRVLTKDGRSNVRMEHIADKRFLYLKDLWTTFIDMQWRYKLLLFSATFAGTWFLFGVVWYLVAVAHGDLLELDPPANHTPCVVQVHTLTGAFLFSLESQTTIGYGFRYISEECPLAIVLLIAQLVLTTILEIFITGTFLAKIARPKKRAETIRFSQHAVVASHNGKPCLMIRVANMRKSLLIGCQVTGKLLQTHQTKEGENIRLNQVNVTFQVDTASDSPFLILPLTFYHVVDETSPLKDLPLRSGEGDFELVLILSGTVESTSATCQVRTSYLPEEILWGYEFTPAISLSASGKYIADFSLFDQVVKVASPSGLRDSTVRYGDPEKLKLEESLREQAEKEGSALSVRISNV

Kir3.1/3.4 = target: T6, Kir3.1/3.4 (Homo sapiens, UniProt P48544+P48549); set-up: method as in PMID 29895592; details: cited from earlier work
T6 construct: expressed in transfected cells
T6 sequence (P48549 1-501): T4 sequence (P48549 1-501)
T6 sequence (P48544 1-419): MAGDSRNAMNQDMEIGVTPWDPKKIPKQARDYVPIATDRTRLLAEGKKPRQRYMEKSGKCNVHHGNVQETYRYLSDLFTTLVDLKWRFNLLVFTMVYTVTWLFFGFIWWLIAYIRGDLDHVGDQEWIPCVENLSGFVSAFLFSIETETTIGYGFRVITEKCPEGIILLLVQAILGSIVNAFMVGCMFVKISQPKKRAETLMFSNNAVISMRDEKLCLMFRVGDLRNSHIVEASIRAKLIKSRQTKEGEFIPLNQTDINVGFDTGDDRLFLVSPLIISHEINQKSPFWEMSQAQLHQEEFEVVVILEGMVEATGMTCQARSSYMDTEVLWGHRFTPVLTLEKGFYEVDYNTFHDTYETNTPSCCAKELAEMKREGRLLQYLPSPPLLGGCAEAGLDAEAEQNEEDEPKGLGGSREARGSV

[8] = ATP depletion with sodium cyanide and 2-deoxy-glucose, read-out: IC50 Kir6.1/SUR2B, ATP depletion
[9] = channels activated with 10 µM pinacidil, read-out: IC50 Kir6.1/SUR2B, pinacidil activation
[10] = thallium flux, ATP depletion with sodium cyanide and 2-deoxy-glucose

T1 sequence (O60706 1-1549 isoform O60706-2, species assumed): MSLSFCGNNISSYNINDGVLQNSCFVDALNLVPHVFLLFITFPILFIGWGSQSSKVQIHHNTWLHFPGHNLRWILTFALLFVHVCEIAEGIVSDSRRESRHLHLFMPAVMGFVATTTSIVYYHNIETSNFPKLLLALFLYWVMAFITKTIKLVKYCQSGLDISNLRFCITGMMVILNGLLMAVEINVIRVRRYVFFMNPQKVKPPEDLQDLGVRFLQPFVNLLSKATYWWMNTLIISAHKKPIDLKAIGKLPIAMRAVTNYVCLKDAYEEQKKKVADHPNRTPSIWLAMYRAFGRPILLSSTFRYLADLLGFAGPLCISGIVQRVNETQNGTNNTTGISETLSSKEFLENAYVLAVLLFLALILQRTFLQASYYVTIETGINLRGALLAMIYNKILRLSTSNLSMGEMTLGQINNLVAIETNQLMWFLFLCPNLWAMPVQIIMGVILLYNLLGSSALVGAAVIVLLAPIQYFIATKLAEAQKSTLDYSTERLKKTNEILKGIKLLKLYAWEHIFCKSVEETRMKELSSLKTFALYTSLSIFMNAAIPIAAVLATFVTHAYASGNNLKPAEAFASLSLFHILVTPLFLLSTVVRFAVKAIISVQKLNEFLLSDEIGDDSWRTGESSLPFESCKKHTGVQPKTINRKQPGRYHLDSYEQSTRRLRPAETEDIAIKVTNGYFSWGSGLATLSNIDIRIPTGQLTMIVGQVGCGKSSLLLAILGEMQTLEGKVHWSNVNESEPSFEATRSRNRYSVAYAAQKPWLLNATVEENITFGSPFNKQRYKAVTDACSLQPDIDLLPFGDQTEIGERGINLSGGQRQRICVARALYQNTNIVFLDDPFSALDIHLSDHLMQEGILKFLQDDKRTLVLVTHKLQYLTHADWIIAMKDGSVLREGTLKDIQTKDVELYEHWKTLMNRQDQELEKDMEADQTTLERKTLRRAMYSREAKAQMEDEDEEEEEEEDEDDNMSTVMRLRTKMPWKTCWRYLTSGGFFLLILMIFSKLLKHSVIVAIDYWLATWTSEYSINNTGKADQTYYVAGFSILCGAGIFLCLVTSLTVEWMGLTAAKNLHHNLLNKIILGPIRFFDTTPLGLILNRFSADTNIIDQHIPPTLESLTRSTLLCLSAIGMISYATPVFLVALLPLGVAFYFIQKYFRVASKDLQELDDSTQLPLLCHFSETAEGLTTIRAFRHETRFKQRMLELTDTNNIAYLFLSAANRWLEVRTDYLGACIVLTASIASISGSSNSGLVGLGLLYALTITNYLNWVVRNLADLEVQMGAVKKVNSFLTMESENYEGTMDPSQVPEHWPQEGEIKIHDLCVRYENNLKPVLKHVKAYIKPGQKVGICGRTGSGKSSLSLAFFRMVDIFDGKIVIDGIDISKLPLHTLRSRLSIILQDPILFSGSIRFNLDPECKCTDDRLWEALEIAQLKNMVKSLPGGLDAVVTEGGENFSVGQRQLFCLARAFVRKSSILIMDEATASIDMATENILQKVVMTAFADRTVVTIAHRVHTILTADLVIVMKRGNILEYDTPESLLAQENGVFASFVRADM
T1 sequence (Q15842 whole entry partner, species assumed): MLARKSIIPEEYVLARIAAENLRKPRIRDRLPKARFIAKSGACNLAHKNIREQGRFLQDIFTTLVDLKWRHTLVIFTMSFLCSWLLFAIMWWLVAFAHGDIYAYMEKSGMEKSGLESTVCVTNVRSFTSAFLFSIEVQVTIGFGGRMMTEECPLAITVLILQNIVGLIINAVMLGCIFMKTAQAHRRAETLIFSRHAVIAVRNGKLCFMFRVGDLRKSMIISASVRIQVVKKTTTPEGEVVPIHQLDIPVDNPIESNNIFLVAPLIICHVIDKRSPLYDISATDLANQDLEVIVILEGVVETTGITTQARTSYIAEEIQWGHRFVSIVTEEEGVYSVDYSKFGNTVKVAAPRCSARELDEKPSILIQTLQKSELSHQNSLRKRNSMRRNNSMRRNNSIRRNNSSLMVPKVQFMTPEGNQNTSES
T2 sequence (Q09428 whole entry, species assumed): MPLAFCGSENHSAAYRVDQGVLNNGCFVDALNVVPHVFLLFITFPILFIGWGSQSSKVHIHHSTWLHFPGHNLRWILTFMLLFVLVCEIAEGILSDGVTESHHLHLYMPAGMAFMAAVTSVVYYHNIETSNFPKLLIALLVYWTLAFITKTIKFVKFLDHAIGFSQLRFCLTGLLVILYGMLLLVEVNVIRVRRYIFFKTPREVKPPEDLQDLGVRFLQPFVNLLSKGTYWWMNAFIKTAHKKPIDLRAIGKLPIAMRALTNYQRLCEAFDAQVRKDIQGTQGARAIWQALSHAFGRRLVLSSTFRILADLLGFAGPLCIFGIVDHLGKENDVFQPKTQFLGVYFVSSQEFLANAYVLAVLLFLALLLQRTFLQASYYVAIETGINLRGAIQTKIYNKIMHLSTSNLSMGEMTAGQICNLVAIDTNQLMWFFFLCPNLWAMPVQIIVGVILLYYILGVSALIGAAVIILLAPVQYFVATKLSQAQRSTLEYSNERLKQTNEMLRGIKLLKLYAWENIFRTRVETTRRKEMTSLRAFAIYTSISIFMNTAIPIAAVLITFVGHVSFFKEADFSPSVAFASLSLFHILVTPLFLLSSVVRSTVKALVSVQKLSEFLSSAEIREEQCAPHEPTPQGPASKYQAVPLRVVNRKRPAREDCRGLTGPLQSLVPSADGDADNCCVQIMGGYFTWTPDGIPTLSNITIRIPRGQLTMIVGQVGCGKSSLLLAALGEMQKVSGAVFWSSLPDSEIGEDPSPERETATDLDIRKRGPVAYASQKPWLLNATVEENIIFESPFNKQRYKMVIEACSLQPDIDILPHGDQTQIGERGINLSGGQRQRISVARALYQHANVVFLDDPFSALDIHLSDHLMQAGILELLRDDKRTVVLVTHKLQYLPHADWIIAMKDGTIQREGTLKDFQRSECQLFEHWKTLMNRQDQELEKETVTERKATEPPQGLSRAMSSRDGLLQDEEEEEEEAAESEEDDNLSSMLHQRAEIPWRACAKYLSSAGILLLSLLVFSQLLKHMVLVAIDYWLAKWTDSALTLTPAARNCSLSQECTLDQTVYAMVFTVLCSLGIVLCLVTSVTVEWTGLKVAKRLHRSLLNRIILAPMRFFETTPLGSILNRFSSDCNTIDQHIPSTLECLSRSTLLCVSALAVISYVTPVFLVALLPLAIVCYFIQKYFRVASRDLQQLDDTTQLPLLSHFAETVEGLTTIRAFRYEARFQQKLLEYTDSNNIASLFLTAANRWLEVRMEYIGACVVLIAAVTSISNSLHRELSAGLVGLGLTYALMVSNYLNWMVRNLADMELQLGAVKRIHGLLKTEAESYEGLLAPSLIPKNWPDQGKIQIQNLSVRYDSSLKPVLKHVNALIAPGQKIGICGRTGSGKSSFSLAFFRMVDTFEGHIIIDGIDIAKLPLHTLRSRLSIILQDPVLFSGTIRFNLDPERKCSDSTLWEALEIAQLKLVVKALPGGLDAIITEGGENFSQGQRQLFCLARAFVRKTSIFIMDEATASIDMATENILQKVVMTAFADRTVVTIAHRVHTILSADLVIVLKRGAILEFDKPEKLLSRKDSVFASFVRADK
T2 sequence (Q14654 whole entry partner, species assumed): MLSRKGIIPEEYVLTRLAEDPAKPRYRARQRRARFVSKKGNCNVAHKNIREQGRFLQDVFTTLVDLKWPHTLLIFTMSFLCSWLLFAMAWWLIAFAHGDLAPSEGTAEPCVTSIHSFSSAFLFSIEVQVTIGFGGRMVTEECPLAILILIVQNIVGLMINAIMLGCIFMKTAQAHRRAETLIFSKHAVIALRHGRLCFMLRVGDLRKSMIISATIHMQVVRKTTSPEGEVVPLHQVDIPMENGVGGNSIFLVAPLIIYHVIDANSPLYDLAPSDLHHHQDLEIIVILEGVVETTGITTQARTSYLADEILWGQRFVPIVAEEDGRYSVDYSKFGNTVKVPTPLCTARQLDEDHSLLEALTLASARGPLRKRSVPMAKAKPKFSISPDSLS

Row | Compound | IC50 (Kir6.1/SUR2B [1]; [8]) | IC50 (Kir6.1/SUR2B [1]; [9]) | Activation of Kir6.1/SUR2B (Kir6.1/SUR2B [2]) | Effect on Kir6.2/SUR1 channel activity (Kir6.2/SUR1 [3]; VU0071063 activation or ATP depletion, full range of doses tested (up to 30 µM)) | IC50 (Kir6.2/SUR1 [3]; [10]) [µM] | IC50 Kir6.2/SUR1, ATP depletion (Kir6.2/SUR1 [3]; [10]) | IC50 Kir6.2/SUR1, VU0071063 activation (Kir6.2/SUR1 [3]; thallium flux, in the presence of 10 uM VU0071063) | IC50 (Kir6.1/SUR2B [4]) [µM] | Potency for contraction of ductus arteriosus vessels [5] | Activity toward Kir6.2/SUR1 (Kir6.2/SUR1 [6]) | Activation of Kir6.2/SUR1 (Kir6.2/SUR1 [7]) | IC50 (Kir4.2) [µM] | Efficacy of inhibition of Kir3.1/3.2 (Kir3.1/3.2; at 30 µM) | IC50 (Kir3.1/3.2) [µM] | Efficacy of inhibition of Kir4.1 (Kir4.1; at 30 µM) | IC50 (Kir4.1) [µM] | Efficacy of inhibition of Kir3.1/3.4 (Kir3.1/3.4; at 30 µM) | IC50 (Kir3.1/3.4) [µM]
1 | COc1ccc(Cl)cc1C(=O)NCCc1ccc(S(=O)(=O)NC(=O)NC2CCCCC2)cc1 [Glibenclamide, glibenclamide, reference compound] | 0.051 µM and 0.05 µM | 0.033 µM and 0.03 µM | failed to activate | – | – | – | – | – | – | – | – | – | – | – | – | – | – | –
2 | Cc1nc(-c2cccs2)sc1CNC(=O)Nc1cccs1 [VU0542270, reference compound] | 0.031 µM and 0.03 µM | 0.1 µM | failed to activate | no effect | > 30 | no fit | no fit | ~0.1 | same potency as glibenclamide | no apparent activity | failed to activate; also recorded: did not | – | – | – | – | – | – | –
3 | CC(C)c1ccc(OCC(=O)NC2CC(C)(C)NC(C)(C)C2)c(Br)c1 [VU0134992] | – | – | – | – | – | – | – | – | – | – | – | 8.2 | greater than 90% | 2.5 | greater than 90% | 5.2 | greater than 90% | 3.1
